# Results reported in PMC5218480 (PLoS ONE, 2017).
# Tested on: MV-4-11 cells
# Experiment: Gene expression microarray analysis (Affymetrix PrimeView) and GSEA
# Format: cell-based, human
# Design: RFU PODN (11730768_x_at) / Fold change /veh PODN (11730768_x_at) / RFU LINC00158 (11744669_a_at) / Fold change /veh LINC00158 (11744669_a_at) / RFU DUSP10 (11751237_a_at) / Fold change /veh DUSP10 (11751237_a_at) / RFU ID3 (11757404_x_at) / Fold change /veh ID3 (11757404_x_at) / RFU PLEKHG5 (11737974_s_at) / Fold change /veh PLEKHG5 (11737974_s_at) / RFU LRRC4B (11730491_at) / Fold change /veh LRRC4B (11730491_at) / RFU GIMAP4 (11747438_a_at) / Fold change /veh GIMAP4 (11747438_a_at) / RFU KRT8 (11758183_x_at) / Fold change /veh KRT8 (11758183_x_at) / RFU CNN1 (11734310_a_at) / Fold change /veh CNN1 (11734310_a_at) / RFU VPS37D (11726825_at) / Fold change /veh VPS37D (11726825_at) / RFU C10orf10 (11716522_x_at) / Fold change /veh C10orf10 (11716522_x_at) / RFU KIR2DL2 /// KIR2DL4 /// KIR2DL5A /// KIR2DL5B /// KIR2DS1 /// KIR2DS2 /// KIR2DS3 /// KIR2DS4 /// KIR3DL3 /// KIR3DL3 /// KIR3DS1 (11738374_at) / Fold change /veh KIR2DL2 /// KIR2DL4 /// KIR2DL5A /// KIR2DL5B /// KIR2DS1 /// KIR2DS2 /// KIR2DS3 /// KIR2DS4 /// KIR3DL3 /// KIR3DL3 /// KIR3DS1 (11738374_at) / RFU C1QL1 (11718748_at) / Fold change /veh C1QL1 (11718748_at) / RFU TMPRSS4 (11747572_a_at) / Fold change /veh TMPRSS4 (11747572_a_at) / RFU HAMP (11756126_x_at) / Fold change /veh HAMP (11756126_x_at) / RFU RNFT2 (11725882_a_at) / Fold change /veh RNFT2 (11725882_a_at) / RFU NR4A2 (11747474_a_at) / Fold change /veh NR4A2 (11747474_a_at) / RFU ABCC12 (11746883_a_at) / Fold change /veh ABCC12 (11746883_a_at) / RFU TMEM136 (11760407_x_at) / Fold change /veh TMEM136 (11760407_x_at) / RFU CLDN22 /// WWC2 (11732394_at) / Fold change /veh CLDN22 /// WWC2 (11732394_at) / RFU HLA-DPB1 (11760878_x_at) / Fold change /veh HLA-DPB1 (11760878_x_at) / RFU SPINT1 (11716480_a_at) / Fold change /veh SPINT1 (11716480_a_at) / RFU GAP43 (11754022_s_at) / Fold change /veh GAP43 (11754022_s_at) / RFU A4GNT (11735810_at) / Fold change /veh A4GNT (11735810_at) / RFU PRB3 (11715151_x_at) / Fold change /veh PRB3 (11715151_x_at) / RFU TUBB4B (11761932_at) / Fold change /veh TUBB4B (11761932_at) / RFU CAPN14 (11732068_a_at) / Fold change /veh CAPN14 (11732068_a_at) / RFU TMCC2 (11721928_a_at) / Fold change /veh TMCC2 (11721928_a_at) / RFU IRGQ (11745062_a_at) / Fold change /veh IRGQ (11745062_a_at) / RFU FAM174B (11720279_a_at) / Fold change /veh FAM174B (11720279_a_at) / RFU TMPRSS4 (11748680_a_at) / Fold change /veh TMPRSS4 (11748680_a_at) / RFU FAM212B (11763350_a_at) / Fold change /veh FAM212B (11763350_a_at) / RFU PLEKHG5 (11743358_a_at) / Fold change /veh PLEKHG5 (11743358_a_at) / RFU ZSCAN30 (11745921_a_at) / Fold change /veh ZSCAN30 (11745921_a_at) / RFU CMKLR1 (11741424_a_at) / Fold change /veh CMKLR1 (11741424_a_at) / RFU LOC101060620 /// MAPK8IP1 (11723275_at) / Fold change /veh LOC101060620 /// MAPK8IP1 (11723275_at) / RFU SPTSSB (11747773_x_at) / Fold change /veh SPTSSB (11747773_x_at) / RFU PRSS12 (11739890_at) / Fold change /veh PRSS12 (11739890_at) / RFU BIN1 (11741810_x_at) / Fold change /veh BIN1 (11741810_x_at) / RFU WNT11 (11732464_a_at) / Fold change /veh WNT11 (11732464_a_at) / RFU C10orf10 (11716521_a_at) / Fold change /veh C10orf10 (11716521_a_at) / RFU C5orf56 (11738089_at) / Fold change /veh C5orf56 (11738089_at) / RFU CYB561 (11721691_x_at) / Fold change /veh CYB561 (11721691_x_at) / RFU ANKRD19P (11752326_a_at) / Fold change /veh ANKRD19P (11752326_a_at) / RFU OR2T12 /// OR2T33 /// OR2T8 (11738714_s_at) / Fold change /veh OR2T12 /// OR2T33 /// OR2T8 (11738714_s_at) / RFU VCAN (11748164_a_at) / Fold change /veh VCAN (11748164_a_at) / RFU JSRP1 (11732532_at) / Fold change /veh JSRP1 (11732532_at) / RFU KRTAP10-11 (11738290_x_at) / Fold change /veh KRTAP10-11 (11738290_x_at) / RFU MYO3A (11730013_a_at) / Fold change /veh MYO3A (11730013_a_at) / RFU EBF3 (11725865_a_at) / Fold change /veh EBF3 (11725865_a_at) / RFU CAMK2N1 (11719241_x_at) / Fold change /veh CAMK2N1 (11719241_x_at) / RFU C5orf56 (11738088_a_at) / Fold change /veh C5orf56 (11738088_a_at) / RFU OLFML3 (11715873_a_at) / Fold change /veh OLFML3 (11715873_a_at) / RFU LOC100653217 /// NTM (11731650_a_at) / Fold change /veh LOC100653217 /// NTM (11731650_a_at) / RFU MAPK11 (11762145_a_at) / Fold change /veh MAPK11 (11762145_a_at) / RFU FIZ1 (11724087_x_at) / Fold change /veh FIZ1 (11724087_x_at) / RFU OASL (11726364_x_at) / Fold change /veh OASL (11726364_x_at) / RFU SOX15 (11748057_x_at) / Fold change /veh SOX15 (11748057_x_at) / RFU CD79A (11719716_a_at) / Fold change /veh CD79A (11719716_a_at) / RFU HIST1H1D (11736915_at) / Fold change /veh HIST1H1D (11736915_at) / RFU CASKIN2 (11723855_a_at) / Fold change /veh CASKIN2 (11723855_a_at) / RFU LOC730098 (11760151_x_at) / Fold change /veh LOC730098 (11760151_x_at) / RFU OR4N2 (11742367_at) / Fold change /veh OR4N2 (11742367_at) / RFU PRRT2 (11749266_a_at) / Fold change /veh PRRT2 (11749266_a_at) / RFU SNX32 (11753110_a_at) / Fold change /veh SNX32 (11753110_a_at) / RFU CDHR5 (11726645_a_at) / Fold change /veh CDHR5 (11726645_a_at) / RFU RCAN1 (11760418_a_at) / Fold change /veh RCAN1 (11760418_a_at) / RFU FAM167A (11723789_a_at) / Fold change /veh FAM167A (11723789_a_at) / RFU FAM26E (11764081_at) / Fold change /veh FAM26E (11764081_at) / RFU ISYNA1 (11749810_s_at) / Fold change /veh ISYNA1 (11749810_s_at) / RFU ACY1 (11761880_at) / Fold change /veh ACY1 (11761880_at) / RFU 11764098_at / Fold change /veh 11764098_at / RFU SAMD14 (11745864_x_at) / Fold change /veh SAMD14 (11745864_x_at) / RFU NPB (11741838_a_at) / Fold change /veh NPB (11741838_a_at) / RFU TMPRSS6 (11731388_a_at) / Fold change /veh TMPRSS6 (11731388_a_at) / RFU KRTAP10-2 (11738614_at) / Fold change /veh KRTAP10-2 (11738614_at) / RFU ARHGAP8 /// PRR5-ARHGAP8 (11727945_x_at) / Fold change /veh ARHGAP8 /// PRR5-ARHGAP8 (11727945_x_at) / RFU KRTAP5-7 /// NADSYN1 (11734609_at) / Fold change /veh KRTAP5-7 /// NADSYN1 (11734609_at) / RFU RASL12 (11751679_a_at) / Fold change /veh RASL12 (11751679_a_at) / RFU CDKN2B (11736163_a_at) / Fold change /veh CDKN2B (11736163_a_at) / RFU PRF1 (11729649_at) / Fold change /veh PRF1 (11729649_at) / RFU, ZNF638 /// ZNF638-IT1 / Fold change vs veh, ZNF638 /// ZNF638-IT1 / RFU, PANK3 / Fold change vs veh, PANK3 / RFU, SH3YL1 / Fold change vs veh, SH3YL1 / RFU, ZEB2 / Fold change vs veh, ZEB2 / RFU, NRIP1 / Fold change vs veh, NRIP1 / RFU, PTTG1IP / Fold change vs veh, PTTG1IP / RFU, CAPN2 / Fold change vs veh, CAPN2 / RFU, MED14 / Fold change vs veh, MED14 / RFU, SNORA58 / Fold change vs veh, SNORA58 / RFU, C1orf63 / Fold change vs veh, C1orf63 / RFU, LRRFIP1 / Fold change vs veh, LRRFIP1 / RFU, NDUFAF7 / Fold change vs veh, NDUFAF7 / RFU, SLC12A2 / Fold change vs veh, SLC12A2 / RFU, IBTK / Fold change vs veh, IBTK / RFU, ESF1 / Fold change vs veh, ESF1 / Fold change vs veh, TMEM50B / RFU, TAOK1 / Fold change vs veh, TAOK1 / RFU, ACBD3 / Fold change vs veh, ACBD3 / RFU, TMA16 / Fold change vs veh, TMA16 / RFU, RWDD3 / Fold change vs veh, RWDD3 / RFU, BCAT1 / Fold change vs veh, BCAT1 / RFU, EDEM3 / Fold change vs veh, EDEM3 / RFU, TMEM33 / Fold change vs veh, TMEM33 / RFU, WDR75 / Fold change vs veh, WDR75 / RFU, AHCTF1 / Fold change vs veh, AHCTF1 / RFU, TFRC / Fold change vs veh, TFRC / RFU, ZDHHC17 / Fold change vs veh, ZDHHC17 / RFU, NOM1 / Fold change vs veh, NOM1 / RFU, ARL8B / Fold change vs veh, ARL8B / RFU, ZBTB11 / Fold change vs veh, ZBTB11 / RFU, TAMM41 / Fold change vs veh, TAMM41 / RFU, KIAA1704 /// LOC100996395 / Fold change vs veh, KIAA1704 /// LOC100996395 / RFU, ING1 / Fold change vs veh, ING1 / RFU, TRMT61B / Fold change vs veh, TRMT61B / RFU, FUBP3 / Fold change vs veh, FUBP3 / RFU, TP53 / Fold change vs veh, TP53 / RFU, TNKS2 / Fold change vs veh, TNKS2 / RFU, ZFP14 / Fold change vs veh, ZFP14 / RFU, ACTR2 / Fold change vs veh, ACTR2 / RFU, PPP3R1 / Fold change vs veh, PPP3R1 / RFU, PIK3R1 / Fold change vs veh, PIK3R1 / RFU, HNRNPA1 / Fold change vs veh, HNRNPA1 / RFU, RNF170 / Fold change vs veh, RNF170 / RFU, ZNF28 / Fold change vs veh, ZNF28 / RFU, RNGTT / Fold change vs veh, RNGTT / RFU, OGT / Fold change vs veh, OGT / RFU, BRD1 / Fold change vs veh, BRD1 / RFU, MARS / Fold change vs veh, MARS / RFU, ZNF655 / Fold change vs veh, ZNF655 / RFU, FAHD1 / Fold change vs veh, FAHD1 / RFU, BDP1 / Fold change vs veh, BDP1 / RFU, LRRCC1 / Fold change vs veh, LRRCC1 / RFU, ARID1A / Fold change vs veh, ARID1A / RFU, ZNF146 / Fold change vs veh, ZNF146 / RFU, ZNF330 / Fold change vs veh, ZNF330 / RFU, GPN3 / Fold change vs veh, GPN3 / RFU, C9orf123 / Fold change vs veh, C9orf123 / RFU, N4BP2L2 / Fold change vs veh, N4BP2L2 / RFU, ARFIP1 / Fold change vs veh, ARFIP1 / RFU, FAM179B / Fold change vs veh, FAM179B / RFU, BCL10 / Fold change vs veh, BCL10 / RFU, UHRF1BP1L / Fold change vs veh, UHRF1BP1L / RFU, BET1 / Fold change vs veh, BET1 / RFU, CNOT2 / Fold change vs veh, CNOT2 / RFU, ZNF268 / Fold change vs veh, ZNF268 / Fold change vs veh, ZNF507 / RFU, DGCR2 / Fold change vs veh, DGCR2 / RFU, WDSUB1 / Fold change vs veh, WDSUB1 / Fold change vs veh, HSP90B1 /// MIR3652 / RFU, ADSS / Fold change vs veh, ADSS / RFU, GK / Fold change vs veh, GK / RFU, ZNF148 / Fold change vs veh, ZNF148 / RFU, TAF9 / Fold change vs veh, TAF9 / RFU, SLC1A5 / Fold change vs veh, SLC1A5 / RFU, SLMO2 / Fold change vs veh, SLMO2 / RFU, ABCC4 / Fold change vs veh, ABCC4 / RFU, LOC101060439 /// RAP1B / Fold change vs veh, LOC101060439 /// RAP1B / RFU, RFX7 / Fold change vs veh, RFX7 / RFU, GTPBP10 / Fold change vs veh, GTPBP10 / RFU, CNEP1R1 / Fold change vs veh, CNEP1R1 / RFU, BIVM-ERCC5 /// ERCC5 / Fold change vs veh, BIVM-ERCC5 /// ERCC5 / RFU, ILF3 / Fold change vs veh, ILF3 / RFU 11762660_at / Fold change /veh 11762660_at / RFU VCAN (11757783_s_at) / Fold change /veh VCAN (11757783_s_at) / RFU DDX43 (11728927_at) / Fold change /veh DDX43 (11728927_at) / RFU KRT8 (11758188_x_at) / Fold change /veh KRT8 (11758188_x_at) / RFU NKD1 (11759106_at) / Fold change /veh NKD1 (11759106_at) / RFU SRD5A1 (11742802_a_at) / Fold change /veh SRD5A1 (11742802_a_at) / RFU TPSAB1 /// TPSB2 (11721975_s_at) / Fold change /veh TPSAB1 /// TPSB2 (11721975_s_at) / RFU GSTM3 (11746129_a_at) / Fold change /veh GSTM3 (11746129_a_at) / RFU IL23R (11737362_x_at) / Fold change /veh IL23R (11737362_x_at) / RFU TMEM51 (11727254_a_at) / Fold change /veh TMEM51 (11727254_a_at) / RFU PIWIL2 (11732686_x_at) / Fold change /veh PIWIL2 (11732686_x_at) / RFU ORM1 (11744905_x_at) / Fold change /veh ORM1 (11744905_x_at) / RFU CCDC152 (11743942_at) / Fold change /veh CCDC152 (11743942_at) / RFU ECM1 (11717891_a_at) / Fold change /veh ECM1 (11717891_a_at) / RFU IL23R (11748794_a_at) / Fold change /veh IL23R (11748794_a_at) / RFU TNFAIP8L3 (11732012_x_at) / Fold change /veh TNFAIP8L3 (11732012_x_at) / RFU MBOAT4 (11741988_at) / Fold change /veh MBOAT4 (11741988_at) / RFU 11764193_at / Fold change /veh 11764193_at / RFU TMEM53 (11763286_at) / Fold change /veh TMEM53 (11763286_at) / RFU MAGEB2 (11727129_at) / Fold change /veh MAGEB2 (11727129_at) / RFU TMEM200A (11744735_a_at) / Fold change /veh TMEM200A (11744735_a_at) / RFU CCDC152 (11751479_a_at) / Fold change /veh CCDC152 (11751479_a_at) / RFU FAM211A (11726209_a_at) / Fold change /veh FAM211A (11726209_a_at) / RFU RGS16 (11746705_a_at) / Fold change /veh RGS16 (11746705_a_at) / RFU VCAN (11755009_s_at) / Fold change /veh VCAN (11755009_s_at) / RFU RHOB (11743442_s_at) / Fold change /veh RHOB (11743442_s_at) / RFU RGS16 (11720943_a_at) / Fold change /veh RGS16 (11720943_a_at) / RFU RGS16 (11720944_at) / Fold change /veh RGS16 (11720944_at) / RFU, VPS4B / Fold change vs veh, VPS4B / RFU, CREB1 / Fold change vs veh, CREB1 / RFU, DNAJC13 / Fold change vs veh, DNAJC13 / RFU, GNAQ / Fold change vs veh, GNAQ / RFU, CDK5R1 / Fold change vs veh, CDK5R1 / RFU, ZRANB3 / Fold change vs veh, ZRANB3 / RFU, CUL4A / Fold change vs veh, CUL4A / RFU, CCNY / Fold change vs veh, CCNY / RFU, UFL1 / Fold change vs veh, UFL1 / RFU, COG3 / Fold change vs veh, COG3 / RFU, DIAPH2 / Fold change vs veh, DIAPH2 / RFU, SKA2 / Fold change vs veh, SKA2 / RFU, AFF3 / Fold change vs veh, AFF3 / RFU, LMF1 / Fold change vs veh, LMF1 / RFU, IPO11 / Fold change vs veh, IPO11 / RFU, DFFB / Fold change vs veh, DFFB / RFU, FOXP1 / Fold change vs veh, FOXP1 / RFU, CARD8 / Fold change vs veh, CARD8 / RFU, STRN3 / Fold change vs veh, STRN3 / RFU, ADK / Fold change vs veh, ADK / RFU, RASSF2 / Fold change vs veh, RASSF2 / RFU, WIPF1 / Fold change vs veh, WIPF1 / RFU, LARP1B / Fold change vs veh, LARP1B / RFU, RASA1 / Fold change vs veh, RASA1 / RFU, RB1 / Fold change vs veh, RB1 / RFU, PPFIA1 / Fold change vs veh, PPFIA1 / RFU, MAT2A / Fold change vs veh, MAT2A / RFU, CCT5 / Fold change vs veh, CCT5 / RFU, WDR92 / Fold change vs veh, WDR92 / RFU, CUX1 / Fold change vs veh, CUX1 / RFU, TTC7A / Fold change vs veh, TTC7A / RFU, TMEM135 / Fold change vs veh, TMEM135 / RFU, DEPTOR / Fold change vs veh, DEPTOR / RFU, CPM / Fold change vs veh, CPM / RFU, DNAJB6 / Fold change vs veh, DNAJB6 / RFU, CACNA2D3 / Fold change vs veh, CACNA2D3 / RFU, DTX4 / Fold change vs veh, DTX4 / RFU, TFCP2 / Fold change vs veh, TFCP2 / RFU, GMCL1 /// GMCL1P1 / Fold change vs veh, GMCL1 /// GMCL1P1 / RFU, AEBP2 / Fold change vs veh, AEBP2 / RFU, SNHG1 /// SNORD22 /// SNORD25 /// SNORD26 /// SNORD27 /// SNORD28 /// SNORD29 /// SNORD31 / Fold change vs veh, SNHG1 /// SNORD22 /// SNORD25 /// SNORD26 /// SNORD27 /// SNORD28 /// SNORD29 /// SNORD31 / Fold change (Aza/veh), C12orf56 (ProbeSet 11735607_a_at) / Fold change (ACY-1035/veh), C12orf56 (ProbeSet 11735607_a_at) / Fold change (Aza/veh), FGFR1OP (ProbeSet 11751329_s_at) / Fold change (ACY-1035/veh), FGFR1OP (ProbeSet 11751329_s_at) / Fold change (Aza/veh), VPS36 (ProbeSet 11739960_a_at) / Fold change (ACY-1035/veh), VPS36 (ProbeSet 11739960_a_at) / RFU SYPL1 (11715823_x_at) / Fold change /veh SYPL1 (11715823_x_at) / RFU IGFBP7 (11715501_s_at) / Fold change /veh IGFBP7 (11715501_s_at) / RFU REEP3 (11722064_at) / Fold change /veh REEP3 (11722064_at) / RFU IGLL1 (11728026_x_at) / Fold change /veh IGLL1 (11728026_x_at): dose or concentration left out as unconfirmed
# Details: MV-4-11 cells, 48 hours
smiles,measurement,value
Nc1ncn([C@@H]2O[C@H](CO)[C@@H](O)[C@H]2O)c(=O)n1 [azacitidine],Fold change /veh FAM211A (11726209_a_at),1.26
